Data published in patent US20240252582A1, “METHODS FOR TREATING AMBLYOPIA” (City University of Hong Kong, priority 2023, published 2024).
Non-standard residues stand in square brackets, D forms with d. Phe(3-Br) = N[C@@H](Cc1cccc(Br)c1)C(=O)O; Nle = CCCC[C@H](N)C(=O)O

Tests used:
[1] = test system: juvenile C57BL/6 mice model of amblyopia (LTMD); test: Visual water behavioral test of visual acuity after long-term monocular deprivation; format: in vivo; conditions: for Visual acuity: Long-term MD (P21-P42) mice, WT adult 0.44; for Performance (percentage accuracy) during training after treatment / Cutoff (70% accuracy) achieved during testing / Visual acuity, Mean±SEM (FIG. 2G, post hoc analysis): juvenile LTMD mice; for Performance (percentage accuracy) during training after treatment: cutoff 70% accuracy (FIG. 2F); for Visual acuity, Mean±SEM (FIG. 2G, post hoc analysis): WT 0.44±0.02 (P>0.05)
Source text: Amblyopia patients usually have poor visual acuity. It is believed that the method according to the invention can reverse the lost visual acuity in amblyopia patients. FIGS. 2A-2G illustrate the assessment of visual acuity using visual water maze. Dotted line represents the 70% accuracy as cutoff. As shown in FIGS. 2C-2E, WT adult (P60) mice with no MD show cutoff at cpd 0.45 achieved during testing by all the animals (12 animals). After LTMD in juvenile followed by saline (infusion)/CCK8s treatment, the mice show cutoff at cpd 0.30 and 0.52 respectively achieved during testing by all the animals (11 animals/12 animals respectively). After LTMD in juvenile followed by saline (i.p)/CCKBR agonist (3r1) treatment, the mice show cutoff at cpd 0.33 and 0.46 respectively achieved during testing by all the animals (11 animals/15 animals respectively). […] The performance of the animals during training in WT adult (P60) with no MD, before and after remained unchanged. After LTMD in juvenile, the performance of animals during training before and after saline (infusion) treatment remained unchanged and the performance of animals during training before and after CCK8s treatment show the difference. […] After LTMD in juvenile, the performance of animals during training before and after saline (i.p) treatment remained unchanged and the performance of animals during training before and after CCK-agonist (3r1) treatment show the difference. […] A significant difference is observed between saline (infusion) and CCK8s treated animals (P<0.001) and in between saline (i.p) and CCKBR agonist (3r1) (P<0.001). No significant difference in visual acuity observed in adult (P60), no MD and juvenile LTMD following CCK8s and CCKBR agonist (3r1) treated animals (P>0.05). Error bars in FIG. 2G indicate the standard error of the mean (SEM).
Visual water behavioral test is performed to show visual acuity improvement following long-term monocular deprivation after administration of CCK8s and CCKBR agonist (3r1). Each animal learns quickly to associate swimming to the escape platform placed below the screen displaying grating stimuli during pre-training phase and post-training phase. Animals of all groups learn serendipitously during training to swim to the end of the divider, and then look at each screen several times before making their choice.
FIGS. 2A and 2B show the behavioural experimental design of this example: (CCK8s) infusion in V1 and CCKBR agonist (3r1)(i.p). The testing criterion in the training phase (from P42 to P47) is reached for all mice within four sessions (32 trials). Average performance above 70% accuracy is maintained for all mice of different groups (FIG. 2F). The visual acuity of the groups is illustrated in FIGS. 2C-2E.

[2] = test system: juvenile C57BL/6 mice model of amblyopia (LTMD); test: In-vivo electrophysiology (spike recording in V1), contralateral bias index after long-term monocular deprivation
Method: The mice are anesthetized through the application of a K-X combination during the surgical preparation. The body temperatures of the mice are maintained at 37° C. by use of a homeostatically controlled heating pad during the surgery. Following the induction of anesthesia, each mouse is mounted on a stereotaxic instrument (RWD Life Science, Shenzhen, China) and an incision is made along the midline of the head. The stereotaxic instrument is adjusted to place the bregma and lambda points of the skull on a flat skull surface (anteroposterior: −3.2 mm to −4.0 mm; mediolateral: 3.0-3.8 mm, relative to bregma). A piece of the scalp over the V1 is removed to expose the cortex, and a bone screw is fixed in the frontal bone as the reference electrode. The exposed cortical surface is then covered with extracellular saline (in mM: 125 NaCl, 5 KCl, 10 glucose, 10 4-(2-hydroxyethyl)-1-piperazineethanesulphonicacid [HEPES], and 2 CaCl2; pH adjusted to 7.4) to prevent drying of the surface. The electrode is lowered into the brain to an appropriate depth (V1≤1 mm) and is allowed to settle for 30 min before recording is begun. In each mouse, 3-4 separate penetrations are spaced evenly at least 200 μm apart across the binocular region of V1. The eyes are kept moist with ophthalmic lubricant ointment until recording to prevent drying while enabling clear optical transmission. At the end of the recording, the mice are euthanized by injection of an overdose of Dorminal (300 mg/kg).
Visual stimuli of sinusoidal drifting gratings with increasing orientation angles(0-330°) and 0.4 cpd are presented in random order to alternate eyes. The spike recordings are performed with the use of a polyimide-coated platinum/iridium (70:30) ribbon microelectrode array (Clunbury Scientific LLC, USA). The tip resistances are 30-50 kΩ. The A-M Systems 3600 (A-M Systems, USA) and CED Micro 1401-3 (Cambridge Electronic Design, UK) instruments are used as the amplifier and data acquisition system, respectively. The signals are sampled at 25 kHz and bandpass-filtered at 300 Hz-3 KHz for spike, amplified, and fed to spike2 software (Cambridge Electronic Design, UK). Offline analysis is performed using MATLAB (R2020b, Math Works, USA). To begin, the raw data are transformed into a MATLAB-compatible format. Spike sorting is used to distinguish various units collected at the same time in the spike data. Wave clus, a MATLAB tool, is used to categorize the units based on the characteristics of their waveforms.
The neuronal response in the Visual cortex (V1) is recorded extracellularly, while the same visual stimulus with varied orientation is presented to either of the eyes alternatively, and the relative strength of the response is determined.
To quantify the deprivation effect, the inventors calculate the contralateral bias index (CBI) from spikes (response from the single neuron) using the following formula:
where NT is the total number of units and NX is the number of units with OD scores equal to x (x=1, 2, 3, 5, 6, 7). For the sum of the number of cells in each category is used to calculate the CBI for each animal.
FIGS. 1A and 1B, show the timeline of the experimental setup, i.e. LTMD, surgery, dosing, and in-vivo electrophysiology used in the second and third experiments. In the second experiments, in juvenile after LTMD, saline or CCK8s (Cholecystokinin octapeptide (Tocris Bioscience, UK): 1 ul each day (10 ng/ul), Cholecystokinin octapeptide (Tocris Bioscience, UK)) is infused (treatment) for 15 days (from P42 to P57) in V1. […] The ipsilateral eye is dominated. Contrarily, in the group treated with CCK8s (infusion in V1), the ocular dominance shifts from the ipsilateral eye towards the contralateral eye (CBI=0.65, 12 animals) (FIG. 1G).
In juvenile after LTMD, 3r1 (a type of CCKBR agonist, Guangzhou Institute of Biomedicine and Health, affiliated with the Chinese Academy of Sciences, Guangzhou, China) (4.18 uM) is administered intraperitoneally (i.p). […]

Substance | Visual acuity ([1]; i.p., saline (i.p) 0.33) [c/d] | Performance (percentage accuracy) during training after treatment [1] | Cutoff (70% accuracy) achieved during testing ([1]; i.p., saline (i.p) 0.33, WT 0.45 (FIG. 2E)) [cpd] | Visual acuity, Mean±SEM (FIG. 2G, post hoc analysis) ([1]; i.p., saline (i.p) 0.33±0.01 (P<0.001)) [c/d] | Contralateral bias index (CBI) ([2]; juvenile LTMD mice, i.p., 4 doses on alternate days for 7 days, 0.0122890 mg/kg per dose, saline CBI=0.31) | Contralateral bias index (CBI) ([2]; juvenile LTMD mice, i.p., 8 doses on alternate days for 14 days, 0.0122890 mg/kg per dose, saline CBI=0.31) | Histogram of V1 cells, eye response bias ([2]; juvenile LTMD mice, treatment for fourteen days (FIG. 1J)) | Histogram of V1 cells, eye response bias ([2]; juvenile LTMD mice, treatment for seven days (FIG. 1I)) | Visual acuity ([1]; infusion, saline (infusion) 0.3) [c/d] | Visual acuity, Mean±SEM (FIG. 2G, post hoc analysis) ([1]; infusion, saline 0.309±0.01 (P<0.001)) [c/d] | Cutoff (70% accuracy) achieved during testing ([1]; infusion, saline (infusion) 0.30, WT 0.45 (FIG. 2D)) [cpd] | Contralateral bias index (CBI) ([2]; juvenile LTMD (P21-P42) mice, infusion in V1, 1 ul each day (10 ng/ul), 15 days (P42-P57), saline CBI=0.33) | Histogram of V1 cells, eye response bias ([2]; juvenile LTMD mice, infusion 15 days (FIG. 1G))
Ac-W[Nle]D[Phe(3-Br)]-NH2 [3r1] | 0.46 | reaches beyond the cutoff | 0.46 | 0.46±0.02 | 0.66 | 0.68 | strong contralateral eye bias | strong contralateral eye bias | – | – | – | – | –
Cholecystokinin octapeptide [CCK8s, reference compound] | – | reaches beyond the cutoff | – | – | – | – | – | – | 0.5 | 0.5±0.01 | 0.52 | 0.65 | strong contralateral eye bias
